From patent US20030092637A1, “Novel compounds” (priority 2000, published 2003)

System: transformed human vascular endothelial cells (ECV cells)
Assay: Cellular growth assay (crystal violet), ECV cells
Type: cell-based
Experimental: Human embryonic lung fibroblasts (HFL-1 cells) and transformed endothelial cells (ECV cells) were obtained. Monolayer cultures were maintained on plastic in Eagle's MEM (Life Technologies, Ltd, Renfrewshire, UK). The medium was supplemented with 10% FCS (In Vitro AB, Stockholm, Sweden), 2 mM L-glutamine (ICN Biochemicals), penicillin (100 units/ml) and streptomycin (100 μg/ml) Cells were regularly checked for mycoplasma using GEN-PROBE Rapid detection system (Skafte & Claesson, Mölndal, Sweden).
In brief, cells were harvested by trypsinisation and seeded into 96-well microculture plates at 3000-5000 cells/well in Ham's F-12 medium (Sigma) supplemented with insulin (10 ng/ml), transferrin (25 ng/ml) and 10% FCS. After 4 h of plating, the cells were serum-starved for 24 h. […] Controls without growth factor and controls with different concentrations of DMSO were included. After 72, 96 and 120 h of growth, cells were fixed in glutaraldehyde, and cell nuclei were stained with crystal violet (Merck, Darmstadt, Germany). After washing and cell lysis for 24 h in 1% Triton X-100, the amount of bound dye was measured at 595 nm in a microplate photometer (Titertek multiscan). Results were corrected for DMSO effects.

`NCCC[C@](N)(C(=O)O)C(F)F` [DFMO, α-difluoromethylornithine] was tested, and the inhibition at 5000 µM (Homo sapiens, Endothelial cell, 5 mM DFMO only, cells dependent on 1 μM spermin) was 5%.
In the case of `Oc1ccc2cc(O[C@@H]3OC[C@@H](O)[C@H](O)[C@H]3O)ccc2c1` [Xyl-2-Nap-6-OH, 6-hydroxy-2-naphthalenyl-β-D-xylopyranoside], the “inhibition of growth of ECV cells” value (0.05 mM Xyl-2-Nap-6-OH, untreated cells as reference) is reported as 9% and the “inhibition of growth of ECV cells” value (Xyl-2-Nap-6-OH alone (concentration not restated; 0.2 mM in the compared combination)) is reported as 31%.
`Cc1ccc(C(=O)Nc2ccc(S(=O)(=O)O)c3cc(S(=O)(=O)O)cc(S(=O)(=O)O)c23)cc1NC(=O)c1cccc(NC(=O)Nc2cccc(C(=O)Nc3cc(C(=O)Nc4ccc(S(=O)(=O)O)c5cc(S(=O)(=O)O)cc(S(=O)(=O)O)c45)ccc3C)c2)c1` [suramin] showed an inhibition at 200 µM (Homo sapiens, Endothelial cell, 0.2 mM suramin, untreated cells as reference) of 20%.
